Measured values: ChEMBL document CHEMBL4138174, “Design and synthesis of novel C14-urea-tetrandrine derivatives with potent anti-cancer activity” (Eur J Med Chem, 2018)
Active and inactive are the calls of the source. The rule behind the calls is not given here.

Tests used:
PC-3 [1] = experiment: Induction of apoptosis in human PC3 cells assessed as early apoptotic cells at 3 uM after 24 hrs by Annexin V-FITC/propidium iodide double staining based flow cytometry (reference value: 0.8%); assay type: functional
PC-3 [2] = experiment: Potency index, ratio of 5-fluorouracil IC50 to compound IC50 for human PC3 cells; assay type: functional
PC-3 [3] = experiment: Induction of apoptosis in human PC3 cells assessed as late apoptotic cells at 2 uM after 24 hrs by Annexin V-FITC/propidium iodide double staining based flow cytometry (reference value: 0.4%); assay type: functional
MDA-MB-231 = experiment: Cytotoxicity against human MDA-MB-231 cells assessed as reduction in cell viability after 48 hrs by MTT assay; assay type: functional, cell-based
[4] = Cytotoxicity against human WM9 cells assessed as reduction in cell viability after 48 hrs by MTT assay; assay type: functional, cell-based
PC-3 [5] = experiment: Induction of apoptosis in human PC3 cells assessed as viable cells at 2 uM after 24 hrs by Annexin V-FITC/propidium iodide double staining based flow cytometry (reference value: 97.9%); assay type: functional; conditions: PC-3, 24 h, read-out: Activity
PC-3 [6] = experiment: Induction of apoptosis in human PC3 cells assessed as viable cells at 3 uM after 24 hrs by Annexin V-FITC/propidium iodide double staining based flow cytometry (reference value: 97.9%); assay type: functional; conditions: PC-3, 24 h, read-out: Activity
PC-3 [7] = experiment: Induction of apoptosis in human PC3 cells assessed as viable cells at 1 uM after 24 hrs by Annexin V-FITC/propidium iodide double staining based flow cytometry (reference value: 97.9%); assay type: functional; conditions: PC-3, 24 h, read-out: Activity
PC-3 [8] = experiment: Induction of apoptosis in human PC3 cells assessed as necrotic cells at 0.5 uM after 24 hrs by Annexin V-FITC/propidium iodide double staining based flow cytometry (reference value: 0.9%); assay type: functional
PC-3 [9] = experiment: Cytotoxicity against human PC3 cells assessed as reduction in cell viability after 48 hrs by MTT assay; assay type: functional, cell-based
PC-3 [10] = experiment: Induction of apoptosis in human PC3 cells assessed as necrotic cells at 2 uM after 24 hrs by Annexin V-FITC/propidium iodide double staining based flow cytometry (reference value: 0.9%); assay type: functional
K562 = experiment: Cytotoxicity against human K562 cells assessed as reduction in cell viability after 48 hrs by MTT assay; assay type: functional, cell-based
PC-3 [11] = experiment: Induction of apoptosis in human PC3 cells assessed as early apoptotic cells at 2 uM after 24 hrs by Annexin V-FITC/propidium iodide double staining based flow cytometry (reference value: 0.8%); assay type: functional
PC-3 [12] = experiment: Induction of apoptosis in human PC3 cells assessed as necrotic cells at 3 uM after 24 hrs by Annexin V-FITC/propidium iodide double staining based flow cytometry (reference value: 0.9%); assay type: functional
PC-3 [13] = experiment: Induction of apoptosis in human PC3 cells assessed as necrotic cells at 1 uM after 24 hrs by Annexin V-FITC/propidium iodide double staining based flow cytometry (reference value: 0.9%); assay type: functional
PC-3 [14] = experiment: Induction of apoptosis in human PC3 cells assessed as late apoptotic cells at 1 uM after 24 hrs by Annexin V-FITC/propidium iodide double staining based flow cytometry (reference value: 0.4%); assay type: functional
PC-3 [15] = experiment: Induction of apoptosis in human PC3 cells assessed as late apoptotic cells at 3 uM after 24 hrs by Annexin V-FITC/propidium iodide double staining based flow cytometry (reference value: 0.4%); assay type: functional
PC-3 [16] = experiment: Potency index, ratio of cisplatin IC50 to compound IC50 for human PC3 cells; assay type: functional
PC-3 [17] = experiment: Induction of apoptosis in human PC3 cells assessed as early apoptotic cells at 0.5 uM after 24 hrs by Annexin V-FITC/propidium iodide double staining based flow cytometry (reference value: 0.8%); assay type: functional
PC-3 [18] = experiment: Induction of apoptosis in human PC3 cells assessed as early apoptotic cells at 1 uM after 24 hrs by Annexin V-FITC/propidium iodide double staining based flow cytometry (reference value: 0.8%); assay type: functional
HEL = experiment: Cytotoxicity against human HEL cells assessed as reduction in cell viability after 48 hrs by MTT assay; assay type: functional, cell-based
PC-3 [19] = experiment: Induction of apoptosis in human PC3 cells assessed as viable cells at 0.5 uM after 24 hrs by Annexin V-FITC/propidium iodide double staining based flow cytometry (reference value: 97.9%); assay type: functional; conditions: PC-3, 24 h, read-out: Activity
PC-3 [20] = experiment: Induction of apoptosis in human PC3 cells assessed as late apoptotic cells at 0.5 uM after 24 hrs by Annexin V-FITC/propidium iodide double staining based flow cytometry (reference value: 0.4%); assay type: functional
PC-3 [21] = experiment: Induction of apoptosis in human PC3 cells assessed as suppression of bcl2 at 2.5 uM after 24 hrs by Western blot analysis; assay type: functional, cell-based
PC-3 [22] = experiment: Induction of apoptosis in human PC3 cells assessed as decrease in cell membrane smoothness at 2.5 uM after 24 hrs by inverted microscopic analysis; assay type: functional, cell-based
PC-3 [23] = experiment: Induction of apoptosis in human PC3 cells assessed as chromatin condensation at 2.5 uM after 24 hrs by Hoechst 33258-based inverted fluorescence microscopy; assay type: functional, cell-based
PC-3 [24] = experiment: Induction of apoptosis in human PC3 cells assessed as formation of apoptotic bodies at 2.5 uM after 24 hrs by 33258-based inverted fluorescence microscopy; assay type: functional, cell-based
PC-3 [25] = experiment: Induction of apoptosis in human PC3 cells assessed as increase in cleaved PARP levels at 2.5 uM after 24 hrs by Western blot analysis; assay type: functional, cell-based
PC-3 [26] = experiment: Induction of apoptosis in human PC3 cells assessed as increase in survivin levels at 2.5 uM after 24 hrs by Western blot analysis; assay type: functional, cell-based
PC-3 [27] = experiment: Induction of apoptosis in human PC3 cells after 24 hrs by Annexin V-FITC/propidium iodide double staining based flow cytometry; assay type: functional, cell-based
PC-3 [28] = experiment: Induction of apoptosis in human PC3 cells assessed as reduction in full length PARP protein levels at 2.5 uM after 24 hrs by Western blot analysis; assay type: functional, cell-based
PC-3 [29] = experiment: Induction of apoptosis in human PC3 cells assessed as cell shrinkage at 2.5 uM after 24 hrs by Hoechst 33258 staining based inverted microscopic analysis; assay type: functional
PC-3 [30] = experiment: Induction of apoptosis in human PC3 cells assessed as reduction in inactive pro-caspase-9 levels at 2.5 uM after 24 hrs by Western blot analysis; assay type: functional, cell-based
PC-3 [31] = experiment: Induction of apoptosis in human PC3 cells assessed as shrunken nucleus at 2.5 uM after 24 hrs by inverted microscopic analysis; assay type: functional, cell-based
PC-3 [32] = experiment: Induction of apoptosis in human PC3 cells assessed as increase in cleaved caspase 9 levels at 2.5 uM after 24 hrs by Western blot analysis; assay type: functional, cell-based
PC-3 [33] = experiment: Induction of apoptosis in human PC3 cells assessed as activation of BAX at 2.5 uM after 24 hrs by Western blot analysis; assay type: functional, cell-based
PC-3 [34] = experiment: Induction of apoptosis in human PC3 cells assessed as increase in cleaved caspase 3 levels at 2.5 uM after 24 hrs by Western blot analysis; assay type: functional, cell-based

## COc1cc(NC(=S)Nc2ccc(F)cc2)c2cc1Oc1ccc(cc1)C[C@H]1c3cc(c(OC)cc3CCN1C)Oc1c(OC)c(OC)cc3c1[C@H](C2)N(C)CC3 [listing 1 of 2 here]
PC-3 [1]
  Activity: 34.4%
PC-3 [2]
  Ratio IC50: 31
PC-3 [3]
  Activity: 2.8%
MDA-MB-231; Homo sapiens, MDA-MB-231, 48 h
  IC50: 2.03 µM
[4]; Homo sapiens, WM9, 48 h
  IC50: 2.6 µM
PC-3 [5]
  viability at 2 µM: 83.3%
PC-3 [6]
  viability at 3 µM: 63.3%
PC-3 [7]
  viability at 1 µM: 87.7%
PC-3 [8]
  Activity: 0.5%
PC-3 [9]; Homo sapiens, PC-3, 48 h
  IC50: 0.64 µM
PC-3 [10]
  Activity: 0.4%
K562; Homo sapiens, K562, 48 h
  IC50: 1.56 µM
PC-3 [11]
  Activity: 13.6%
PC-3 [12]
  Activity: 0.1%
PC-3 [13]
  Activity: 0.3%
PC-3 [14]
  Activity: 0.7%
PC-3 [15]
  Activity: 2.1%
PC-3 [16]
  Ratio IC50: 26
PC-3 [17]
  Activity: 5.3%
PC-3 [18]
  Activity: 11.63%
HEL; Homo sapiens, HEL, 48 h
  IC50: 2.55 µM
PC-3 [19]
  viability at 0.5 µM: 93.3%
PC-3 [20]
  Activity: 0.9%

## COc1cc(NC(=S)Nc2ccc(F)cc2)c2cc1Oc1ccc(cc1)C[C@H]1c3cc(c(OC)cc3CCN1C)Oc1c(OC)c(OC)cc3c1[C@H](C2)N(C)CC3 [listing 2 of 2 here]
PC-3 [21]
  Activity: Active
PC-3 [22]
  Activity: Active
PC-3 [23]
  Activity: Active
PC-3 [24]
  Activity: Active
PC-3 [25]
  Activity: Active
PC-3 [26]
  Activity: Active
PC-3 [27]
  Activity: Dose-dependent effect
PC-3 [28]
  Activity: Active
PC-3 [29]
  Activity: Active
PC-3 [30]
  Activity: Active
PC-3 [31]
  Activity: Active
PC-3 [32]
  Activity: Active
PC-3 [33]
  Activity: Active
PC-3 [34]
  Activity: Active

## COc1cc(NC(=O)Nc2ccc(F)cc2)c2cc1Oc1ccc(cc1)C[C@H]1c3cc(c(OC)cc3CCN1C)Oc1c(OC)c(OC)cc3c1[C@H](C2)N(C)CC3
MDA-MB-231; Homo sapiens, MDA-MB-231, 48 h
  IC50: 5.02 µM
[4]; Homo sapiens, WM9, 48 h
  IC50: 4.19 µM
PC-3 [9]; pc-3
  IC50: 2.07 µM
K562; Homo sapiens, K562, 48 h
  IC50: 1.81 µM
HEL; Homo sapiens, HEL, 48 h
  IC50: 4.46 µM

## COc1ccc2cc1Oc1ccc(cc1)C[C@H]1c3cc(c(OC)cc3CCN1C)Oc1c(OC)c(OC)cc3c1[C@H](C2)N(C)CC3
MDA-MB-231; mda-mb-231
  IC50: 13.6 µM
[4]
  IC50: 7.39 µM
PC-3 [9]; pc-3
  IC50: 4.45 µM
K562; k562
  IC50: 8.87 µM
HEL; hel
  IC50: 10.1 µM
